Assays:
[1] = molecular target: T1, USP14 mutant BL1-USP21 (Homo sapiens, UniProt P54578, DEL335-341/INS333SRGSI); assay: Screening assay with USP14 mutant BL1-USP21, ubiquitin-rhodamine 110 cleavage; type: biochemical; details: 63.75 nM mutant USP14 preincubated 30 minutes; Ub-Rh110; normalized to DMSO (0%) and 10 mM NEM (100%); FIG. 7
T1 construct: a full-length cDNA clone encoding full-length USP14 isoform a; made in house; host or cells: E. coli Rosetta 2 (DE3) pLysS
Protocol: Test compounds were diluted in DMSO to the appropriate concentration before dispensing 2 μl of each compound into a black walled 96 well plate. The compounds were preincubated with 80 μl of reaction buffer containing 63.75 nM mutant USP14 for 30 minutes before adding 20 μl of 510 nM ubiquitin-rhodamine 110 in reaction buffer. The plates were incubated at room temperature before reading on a fluorimeter equipped with excitation and emission filters of […] respectively and a 510 nm dichroic mirror within the linear range of the assay. […] FIG. 7 provides a graph of the results.

[2] = molecular target: T2, USP14 mutant BL2-DNHG (Homo sapiens, UniProt P54578, DEL429-429/S430D/S431N/S432H/S433G); assay: Screening assay with USP14 mutant BL2-DNHG, ubiquitin-rhodamine 110 cleavage; type: biochemical; details: 1.275 μM mutant USP14 preincubated 30 minutes; Ub-Rh110; normalized to DMSO (0%) and 10 mM NEM (100%); FIG. 8
T2 construct: a full-length cDNA clone encoding full-length USP14 isoform a; 6xHis (N); yeast SUMO (S. cerevisiae Smt3) (N); made in house; host or cells: E. coli (Rosetta 2 (DE3) pLysS stated for the pE-SUMOpro-USP14 construct)
T2 sequence (P54578 with tags, fused parts or gaps DEL429-429/S430D/S431N/S432H/S433G): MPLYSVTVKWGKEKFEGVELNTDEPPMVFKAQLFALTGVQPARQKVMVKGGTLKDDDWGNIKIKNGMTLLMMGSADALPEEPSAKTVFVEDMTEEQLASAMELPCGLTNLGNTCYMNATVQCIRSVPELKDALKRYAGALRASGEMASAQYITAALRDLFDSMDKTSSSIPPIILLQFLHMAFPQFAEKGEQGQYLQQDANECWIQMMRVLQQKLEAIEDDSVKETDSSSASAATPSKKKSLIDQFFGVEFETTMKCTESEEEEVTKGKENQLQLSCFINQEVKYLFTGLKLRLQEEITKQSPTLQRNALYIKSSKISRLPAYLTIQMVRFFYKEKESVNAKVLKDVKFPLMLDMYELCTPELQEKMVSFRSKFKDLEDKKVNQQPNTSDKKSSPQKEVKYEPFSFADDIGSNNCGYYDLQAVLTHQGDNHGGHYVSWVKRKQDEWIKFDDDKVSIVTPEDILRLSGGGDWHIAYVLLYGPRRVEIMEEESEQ
Protocol: Another screening assay was performed with the USP14 mutant BL2-DNHG. Test compounds were diluted in DMSO to the appropriate concentration before dispensing 2 μl of each compound into a black walled 96 well plate. The compounds were preincubated with 80 μl of reaction buffer containing 1.275 μM mutant USP14 for 30 minutes before adding 20 μl of 510 nM ubiquitin-rhodamine 110 in reaction buffer. The plates were incubated at room temperature before reading on a fluorimeter equipped with excitation and emission filters of 485 and 528 nm respectively and a 510 nm dichroic mirror within the linear range of the assay.

T1 sequence (P54578 with tags, fused parts or gaps INS333SRGSI/DEL335-341): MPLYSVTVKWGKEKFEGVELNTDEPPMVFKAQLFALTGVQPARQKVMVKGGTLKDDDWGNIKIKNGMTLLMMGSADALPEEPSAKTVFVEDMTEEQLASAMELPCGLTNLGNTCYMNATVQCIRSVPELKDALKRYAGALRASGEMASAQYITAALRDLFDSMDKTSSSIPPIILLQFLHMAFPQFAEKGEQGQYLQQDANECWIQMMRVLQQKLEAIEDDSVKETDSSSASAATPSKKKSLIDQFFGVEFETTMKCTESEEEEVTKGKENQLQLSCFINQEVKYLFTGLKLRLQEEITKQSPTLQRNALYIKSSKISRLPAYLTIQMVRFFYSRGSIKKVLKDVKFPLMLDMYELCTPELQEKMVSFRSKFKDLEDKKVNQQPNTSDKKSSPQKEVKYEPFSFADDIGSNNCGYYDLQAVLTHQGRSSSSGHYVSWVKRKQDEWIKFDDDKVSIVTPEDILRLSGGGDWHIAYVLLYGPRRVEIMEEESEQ

Row | SMILES | inhibition of USP14 mutant (BL1-USP21) [1] | inhibition of USP14 mutant (BL2-DNHG) [2]
1 | CC(=O)c1cc([N+](=O)[O-])c(Sc2ccc(F)cc2F)s1 [P22077] | do not inhibit | do not inhibit
2 | N#CSc1cc(SC#N)c(N)nc1N [PR-619] | inhibit | inhibit

From patent US20130273027A1, “MUTANT PROTEASES AND METHODS OF USE THEREOF” (Progenra, Inc., priority 2012, published 2013)
